Literature values as cited in publication PMC3289745 (Peptides, 2011).

Test system: conscious male rats
Conditions: central injection of neuronostatin; 30 minutes post-injection

## neuronostatin
  increase in plasma AVP levels relative to saline-injected controls: 2–3 times
